Results taken from patent US7196192B2, “28-epirapalogs” (Ariad Gene Therapeutics, Inc., priority 1999, dated 2007).
Values joined by “and” are separate entries in the source; they are usually repeats but may differ in a detail not shown here. Identical values can stand only once. Like-named read-outs stand apart in the source and are kept apart here.

Legend:
FKBP = FKBP (Homo sapiens, UniProt P62942); experiment: FKBP competitive binding assay based on fluorescence polarization (FP); details: for IC50: competitive FP binding, methods of Example 2.5
Sequence of FKBP (P62942 whole entry): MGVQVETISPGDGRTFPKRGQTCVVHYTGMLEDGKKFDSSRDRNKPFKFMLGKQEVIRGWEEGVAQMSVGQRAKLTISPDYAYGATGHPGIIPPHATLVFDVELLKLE
Protocol: A Competitive Binding FP Assay is described in detail in WO99/36553 and WO96/41865. That assay permits the in vitro measurement of an IC50 value for a given compound which reflects its ability to bind to an FKBP-protein in competition with a labeled FKBP ligand, such as, for example, FK506.
(§1) A diverse group of C7-modified 28-epirapalogs were prepared as described in Example 4.

[1] = target: T1, transcriptional switch components containing FKBP and 2098L mutant FRB domains (Homo sapiens, UniProt P42345+P62942); experiment: transcription assay in engineered HD1080 cells expressing SEAP (txn 2098L); format: cell-based
T1 construct: transcriptional switchcomponents containing FKBP and 2098L mutant FRB domains, respectively; fused on or other part: The two switch components are separate chimeric proteins; Neither is given for this cell line
T1 sequence (P62942 2-108 limits assumed, stated change not applied, other chains not shown): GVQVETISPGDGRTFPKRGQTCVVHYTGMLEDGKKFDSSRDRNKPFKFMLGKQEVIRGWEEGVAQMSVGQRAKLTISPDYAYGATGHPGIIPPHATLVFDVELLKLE
Description: The ability of the rapalogs to multimerize chimeric proteins may be measured in cell-based assays by measuring the occurrence of an event triggered by such multimerization. For instance, one may use cells containing and capable of expressing DNA encoding a first chimeric protein comprising one or more FKBP-domains and one or more effector domains as well as DNA encoding a second chimeric protein containing an FRB domain and one or more effector domains capable, upon multimerization, of actuating a biological response. We prefer to use cells which further contain a reporter gene under the transcriptional control of a regulatory element (i.e., promoter) which is responsive to the multimerization of the chimeric proteins. The design and preparation of illustrative components and their use in so engineered cells is described in WO99/36553 and WO96/41865 and the other international patent applications referred to in this and the foregoing section. (See also W099/10510 for additional guidance on the design, assembly and delivery of nucleic acids to render cells and animals responsive to rapalogs of interest and for additional guidance on applications of such systems.) The cells are grown or maintained in culture. A rapalog is added to the culture medium and after a suitable incubation period (to permit gene expression and secretion, e.g. several hours or overnight) the presence of the reporter gene product is measured. Positive results, i.e., multimerization, correlates with transcription of the reporter gene as observed by the appearance of the reporter gene product. The reporter gene product may be a conveniently detectable protein (e.g. by ELISA) or may catalyze the production of a conveniently detectable product (e.g. colored). Materials and methods for producing appropriate cell lines for conducting such assays are disclosed in the international patent applications cited above in this section.
2. EC50 values of the various compounds was measured in a transcription assay using genetically engineered HD1080 cells which constitutively express transcriptional switch components containing FKBP and 2098L mutant FRB domains, respectively and which regulatably express secreted alkaline phosphatase (SEAP) in the presence of a compound which multimerizes the switch components. The assay is a literature assay. See WO 99/36553, e.g. Example 12, pages 120–121 (& FIG. 2D) […]

murine splenocyte = murine splenocyte assay for immunosuppressive activity; format: cell-based; details: for immunosuppressive activity compared with rapamycin: splenocyte proliferation assay, versus rapamycin
Protocol: 3. Conventional murine splenocyte assay for immunosuppressive activity.
as §1

[2] = cellular transcription assay, methods of Example 2.5; read-out: TXN 2098L EC50
[3] = mouse splenocyte assay, methods of Example 2.5, read-out: Splenocyte IC50
[4] = read-out: TXN 2098L EC50; cellular transcription assay, methods of Example 2.5
[5] = Mus musculus, Splenocyte, mouse splenocyte assay, methods of Example 2.5, read-out: Splenocyte IC50
[6] = Mus musculus, Splenocyte, murine splenocyte assay, immunosuppressive activity, read-out: Splenocyte IC50

28-epi-7R-(3′-methyl)-but-4′-enyloxy
IC50 (FKBP; read-out: FKBP IC50): 13 nM
EC50 [1, 2]: 35 nM
IC50 (murine splenocyte; [3]): 3160 nM

28-epi-7S-(3′-methyl)-but-4′-enyloxy
IC50 (FKBP; read-out: FKBP IC50): 27 nM
EC50 [1, 2]: 16 nM
IC50 (murine splenocyte; [3]): 718 nM

28-epi-7S-dimethylthiophene
IC50 (FKBP; read-out: FKBP IC50): 78 nM
EC50 [1, 2]: 30 nM
IC50 (murine splenocyte; [3]): 1240 to 1540 nM

COc1ccccc1COC1CC2CCC(C)C(O)(O2)C(=O)C(=O)N2CCCCC2C(=O)OC(C(C)CC2CCC(O)C(OC)C2)CC(=O)C(C)C=C(C)C(O)C(OC)C(=O)C(C)CC(C)C=CC=CC=C1C (single isomer, unassigned) [28-epi-7R-2′-methoxybenzyloxy]
IC50 (FKBP; read-out: FKBP IC50): 4.6 nM
EC50 [1, 2]: 24 nM
IC50 (murine splenocyte; [3]): 653 nM

COC1CC(CC(C)C2CC(=O)C(C)C=C(C)C(O)C(OC)C(=O)C(C)CC(C)C=CC=CC=C(C)C(N(C)C(=O)OCC(C)C)CC3CCC(C)C(O)(O3)C(=O)C(=O)N3CCCCC3C(=O)O2)CCC1O (single isomer, unassigned) [28-epi-7R-N-Me-isobutylcarbamate]
IC50 (FKBP; read-out: FKBP IC50): 109 nM
EC50 [1, 2]: 15 nM
IC50 (murine splenocyte; [3]): 587 nM

CCCS(=O)(=O)N(C)C1CC2CCC(C)C(O)(O2)C(=O)C(=O)N2CCCCC2C(=O)OC(C(C)CC2CCC(O)C(OC)C2)CC(=O)C(C)C=C(C)C(O)C(OC)C(=O)C(C)CC(C)C=CC=CC=C1C (single isomer, unassigned) [28-epi-7R-N-Me-propanesulfonamide]
IC50 (FKBP; read-out: FKBP IC50): 148 nM
EC50 [1, 2]: 9 nM
IC50 (murine splenocyte; [3]): 1370 nM

CCOC(=O)N(C)C1CC2CCC(C)C(O)(O2)C(=O)C(=O)N2CCCCC2C(=O)OC(C(C)CC2CCC(O)C(OC)C2)CC(=O)C(C)C=C(C)C(O)C(OC)C(=O)C(C)CC(C)C=CC=CC=C1C (single isomer, unassigned) [28-epi-7R-N-methyl-ethylcarbamate]
IC50 (FKBP; read-out: FKBP IC50): 120 nM
EC50 [1, 2]: 9 nM
IC50 (murine splenocyte; [3]): 255 nM

COC1CC(CC(C)C2CC(=O)C(C)C=C(C)C(O)C(OC)C(=O)C(C)CC(C)C=CC=CC=C(C)C(OCc3ccccc3)CC3CCC(C)C(O)(O3)C(=O)C(=O)N3CCCCC3C(=O)O2)CCC1O (single isomer, unassigned) [28-epi-7R-benzyloxy]
IC50 (FKBP; read-out: FKBP IC50): 9.1 nM
EC50 [1, 2]: 14 nM
IC50 (murine splenocyte; [3]): 313 nM

CO[C@@H]1C[C@H](C[C@@H](C)[C@@H]2CC(=O)[C@H](C)/C=C(\C)[C@H](O)[C@@H](OC)C(=O)[C@H](C)C[C@H](C)/C=C/C=C/C=C(\C)[C@H](Oc3ccccc3C)C[C@@H]3CC[C@@H](C)[C@@](O)(O3)C(=O)C(=O)N3CCCC[C@H]3C(=O)O2)CC[C@H]1O [28-epi-7R-2′-methylphenyloxy]
IC50 (FKBP; FKBP IC50 (nM)): 8.1 nM
EC50 [1, 4]: 8 nM
TXN 2098L peak relative to rapamycin peak ([1]; superscript mark on EC50 cell): (+) (peak was >125% rapamycin peak)

CO[C@@H]1C[C@H](C[C@@H](C)[C@@H]2CC(=O)[C@H](C)/C=C(\C)[C@H](O)[C@@H](OC)C(=O)[C@H](C)C[C@H](C)/C=C/C=C/C=C(\C)[C@H](N(C)S(=O)(=O)N(C)C)C[C@@H]3CC[C@@H](C)[C@@](O)(O3)C(=O)C(=O)N3CCCC[C@H]3C(=O)O2)CC[C@H]1O [28-epi-7R-N-Me-dimethylsulfamide]
EC50 [1, 2]: 8 nM
IC50 (murine splenocyte; [3]): 653 nM

CO[C@@H]1C[C@H](C[C@@H](C)[C@@H]2CC(=O)[C@H](C)/C=C(\C)[C@H](O)[C@@H](OC)C(=O)[C@H](C)C[C@H](C)/C=C/C=C/C=C(\C)[C@H](N(C)S(=O)(=O)N(C)c3ccccc3)C[C@@H]3CC[C@@H](C)[C@@](O)(O3)C(=O)C(=O)N3CCCC[C@H]3C(=O)O2)CC[C@H]1O [28-epi-7R-N-Me-methylphenylsulfamide]
IC50 (FKBP; read-out: FKBP IC50): 74 nM
EC50 [1, 2]: 8 nM

CCOC1CC2CCC(C)C(O)(O2)C(=O)C(=O)N2CCCCC2C(=O)OC(C(C)CC2CCC(O)C(OC)C2)CC(=O)C(C)C=C(C)C(O)C(OC)C(=O)C(C)CC(C)C=CC=CC=C1C (stereo not drawn) [28-epi-7R-ethoxy]
EC50 [1, 2]: 33 nM

CO[C@@H]1C[C@H](C[C@@H](C)[C@@H]2CC(=O)[C@H](C)/C=C(\C)[C@H](O)[C@@H](OC)C(=O)[C@H](C)C[C@H](C)/C=C/C=C/C=C(\C)[C@@H](Oc3ccccc3C)C[C@@H]3CC[C@@H](C)[C@@](O)(O3)C(=O)C(=O)N3CCCC[C@H]3C(=O)O2)CC[C@H]1O [28-epi-7S-2′-methylphenyloxy]
IC50 (FKBP; FKBP IC50 (nM)): 17 nM
EC50 [1, 4]: 14 nM

CO[C@@H]1C[C@H](C[C@@H](C)[C@@H]2CC(=O)[C@H](C)/C=C(\C)[C@H](O)[C@@H](OC)C(=O)[C@H](C)C[C@H](C)/C=C/C=C/C=C(\C)[C@@H](N(C)S(=O)(=O)N(C)c3ccccc3)C[C@@H]3CC[C@@H](C)[C@@](O)(O3)C(=O)C(=O)N3CCCC[C@H]3C(=O)O2)CC[C@H]1O [28-epi-7S-N-Me-methylphenylsulfamide]
EC50 [1, 2]: 26 nM

COC1CC(CC(C)C2CC(=O)C(C)C=C(C)C(O)C(OC)C(=O)C(C)CC(C)C=CC=CC=C(C)C(OCCC3CCCCC3)CC3CCC(C)C(O)(O3)C(=O)C(=O)N3CCCCC3C(=O)O2)CCC1O (stereo not drawn) [28-epi-7S-cyclohexylethyloxy]
EC50 [1, 2]: 76 nM

CCOC1CC2CCC(C)C(O)(O2)C(=O)C(=O)N2CCCCC2C(=O)OC(C(C)CC2CCC(O)C(OC)C2)CC(=O)C(C)C=C(C)C(O)C(OC)C(=O)C(C)CC(C)C=CC=CC=C1C (stereo not drawn) [28-epi-7S-ethoxy]
EC50 [1, 2]: 15 nM
IC50 (murine splenocyte; Mus musculus, Splenocyte, read-out: Splenocyte IC50 (nM)): 801 nM

CO[C@@H]1C[C@H](C[C@@H](C)[C@@H]2CC(=O)[C@H](C)/C=C(\C)[C@H](O)[C@@H](OC)C(=O)[C@H](C)C[C@H](C)/C=C/C=C/C=C(\C)[C@@H](OC(C)C)C[C@@H]3CC[C@@H](C)[C@@](O)(O3)C(=O)C(=O)N3CCCC[C@H]3C(=O)O2)CC[C@H]1O [28-epi-7S-isopropyloxy]
IC50 (FKBP; read-out: FKBP IC50): 49 nM
EC50 [1, 2]: 29 nM

COC1CC(CC(C)C2CC(=O)C(C)C=C(C)C(O)C(OC)C(=O)C(C)CC(C)C=CC=CC=C(C)C(SC(C)C)CC3CCC(C)C(O)(O3)C(=O)C(=O)N3CCCCC3C(=O)O2)CCC1O (stereo not drawn) [28-epi-7S-isopropylthioether]
IC50 (FKBP; read-out: FKBP IC50): 15 nM and 21 nM
TXN 2098L peak relative to rapamycin peak ([1]; superscript mark on EC50 cell): (+) (peak was >125% rapamycin peak)

CO[C@H]1C[C@@H]2CC[C@@H](C)[C@@](O)(O2)C(=O)C(=O)N2CCCCC2C(=O)O[C@H]([C@H](C)C[C@@H]2CC[C@@H](O)[C@H](OC)C2)CC(=O)[C@H](C)/C=C(\C)[C@H](O)[C@@H](OC)C(=O)[C@H](C)C[C@H](C)/C=C/C=C/C=C/1C (stereo partly shown) [28-epirapamycin]
affinity towards FKBP, times weaker than that of rapamycin (FKBP; fluorescence polarization competition assay, versus rapamycin): about 5 times
IC50 (murine splenocyte; [5]): 0.9 to 3.5 nM
IC50 (murine splenocyte; [6]): 0.9 to 3.5 nM
immunosuppressive activity compared with rapamycin (murine splenocyte): less potent immunosuppressive activity
immunosuppressive activity compared with rapamycin (murine splenocyte; listed as 2): more than an order of magnitude reduced

CO[C@H]1C[C@@H]2CC[C@@H](C)[C@@](O)(O2)C(=O)C(=O)N2CCCCC2C(=O)O[C@H]([C@H](C)C[C@@H]2CC[C@@H](O)[C@H](OC)C2)CC(=O)[C@H](C)/C=C(\C)[C@@H](O)[C@@H](OC)C(=O)[C@H](C)C[C@H](C)/C=C/C=C/C=C/1C (stereo partly shown) [rapamycin, reference compound]
IC50 (murine splenocyte; [5]): 0.1 to 0.3 nM
IC50 (murine splenocyte; [6]): 0.1 to 0.3 nM
